The test system of experiment [1] is viral reverse transcriptase. Conditions: literature; cited from earlier work.
In another experiment the target is T1, HIV-1 protease (Human immunodeficiency virus type 1 group M subtype B, UniProt P04585).
T1 construct: The protease (or proteinase) enzyme, consisting of only 99 amino acids
Description: In vitro HIV protease inhibitory assay (fluorescently labeled substrate, avidin-polystyrene particles). It counts as biochemical. To be noted: for inhibition at 3.3 µM: HIV-1 dose 3.3 μM; for inhibition at 10 µM: HIV-1 dose 10.0 μM; for inhibition at 30 µM: HIV-1 dose 30.0 μM. In outline:
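Biotinylated, FITC-labelled peptide substrate cleaved by HIV-1 protease for 1 h at room temperature in the dark, in 0.1 M sodium acetate pH 5.5 with 1.0 M NaCl and 0.05% NP-40. Product separated from substrate with avidin-polystyrene beads and filtration; fluorescence read as percent inhibition at stated compound concentrations.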

Another experiment concerns HIV-1IIIB. Description: Inhibition of retroviral replication in human T-cell lines, e.g., MT4 and H9, infected with HIV-1IIIB. It counts as cell-based.
A further experiment concerns HIV-I protease. To be noted: literature; cited from earlier work.

Here are results for 14 molecules from US5977169A, “Substituted tetronic acids useful for treating HIV and other retroviruses” (priority 1997, dated 1999).

Square brackets hold non-standard residues; d marks the D form. Peptide text beside a SMILES is read from it. * marks the point of attachment. Sta = CC(C)C[C@H](N)[C@@H](O)CC(=O)O; Isovaleryl = CC(C)CC(=O)*

Consider `Cc1cn([C@H]2C[C@H](N=[N+]=[N-])[C@@H](CO)O2)c(=O)[nH]c1=O` [AZT, 3-azido-3-deoxythymidine], for which the “inhibition of viral reverse transcriptase” value in experiment [1] is “known inhibitor of viral reverse transcriptase”.
Broadly, the inhibition is the change of the read-out against control, counted positive when it falls. `CCCC1(CCC)OC(=O)C(C(c2cccc(NS(=O)(=O)c3cn(C)cn3)c2)C2CC2)=C1O` (centres unmarked) [IX-17]: on HIV-1 protease, the inhibition at 3.3 µM was 108%, the inhibition at 10 µM came out at 111% and the inhibition at 30 µM amounted to 108%. Besides, the “inhibition of retroviral replication” value with HIV-1IIIB is “found to inhibit retroviral replication”.
`CC(C)CC(=O)N[C@H](C(=O)N[C@H](C(=O)N[C@@H](CC(C)C)[C@@H](O)CC(=O)N[C@@H](C)C(=O)N[C@@H](CC(C)C)[C@@H](O)CC(=O)O)C(C)C)C(C)C` [Pepstatin A] (Isovaleryl-VV[Sta]A[Sta]-OH): the “inhibition of HIV-I protease” value in the experiment on HIV-I protease is recorded as “disclosed as an inhibitor of HIV-I protease”.
On to `CCCC1(CCC)OC(=O)C(C(c2cccc(NS(=O)(=O)c3ccc(C#N)cc3)c2)C2CC2)=C1O` (centres unmarked) [IX-14], for which, at HIV-1 protease, the inhibition at 3.3 µM was determined as 113%, the inhibition at 10 µM was 111% and the inhibition at 30 µM is 119%. Further, the “inhibition of retroviral replication” value with HIV-1IIIB is listed as “found to inhibit retroviral replication”.
For `CCCC1(CCC)OC(=O)C(C(c2cccc(NS(=O)(=O)c3cn(C)cn3)c2)C(C)C)=C1O` (centres unmarked) [IX-24, 1H-Imidazole-4-sulfonamide, N-(3-(1-(4-hydroxy-2-oxo-5,5-dipropyl-2,5-dihydro-furan-3-yl)-2-methyl-propyl)-phenyl)-1-methyl-] the same measures were 102%, 101%, 102% and “found to inhibit retroviral replication”.
`CCCCC(CCc1ccccc1)C1OC(=O)C(C(c2ccccc2)C2CC2)=C1O` (single isomer, unassigned) [GX-1, 2(5H)-Furanone, 3-(cyclopropylphenylmethyl)-4-hydroxy-5-(1-(2-phenyl-ethyl)pentyl)-]: at HIV-1 protease, the inhibition at 3.3 µM was 74.6%, the inhibition at 10 µM is 89.2% and the inhibition at 30 µM was 74%.
Consider `CC(C)C1(C(C)C)OC(=O)C(C(c2ccccc2)C2CC2)=C1O` (centres unmarked) [BX-13, 2(5H)-Furanone, 3-(cyclopropylphenylmethyl)-4-hydroxy-5,5-bis(1-methylethyl)-], for which the inhibition at 1.1 µM at HIV-1 protease (HIV-1 dose 1.1 μM) worked out at 94.1%. For the same molecule, on HIV-1 protease, the inhibition at 3.3 µM worked out at 104% and the inhibition at 10 µM came to 108%.
Consider `CC(C)(C)OC(=O)N1CCC2(CC1)OC(=O)C(C(c1ccccc1)C1CC1)=C2O` (centres unmarked) [OX-1, 3-(Cyclopropyl-phenyl-methyl)-4-hydroxy-2-oXo-1-oca-8-aza-spiro[4.5]dec-3-ene-8-carboxylic acid tert-butyl ester], for which, on HIV-1 protease, the inhibition at 3.3 µM was 78.8%, the inhibition at 10 µM turned out to be 89.9% and the inhibition at 30 µM worked out at 100%.
For `CCCC1(CCC)OC(=O)C(C(c2ccccc2)C2CC2)=C1O` (centres unmarked) [BX-12, 2(5H)-Furanone, 3-(cyclopropylphenylmethyl)-4-hydroxy-5,5-dipropyl-] the same measures were 110%, 112% and 95.3%.
The matching figures for `CCCCC1(CCCc2ccccc2)OC(=O)C(C(c2ccccc2)C2CC2)=C1O` (centres unmarked) [DX-12, 2(5H)-Furanone, 5-butyl-3-(cyclopropylphenylmethyl)-4-hydroxy-5-(3-phenyl-propyl)-]: 116%, 129% and 123%.
Regarding `CC1(Cc2ccccc2)OC(=O)C(C(c2ccccc2)C2CC2)=C1O` (centres unmarked) [DX-2, 2(5H)-Furanone, 3-(cyclopropylphenylmethyl)-4-hydroxy-5-methyl-5-(phenyl-methyl)-], at HIV-1 protease, the inhibition at 3.3 µM worked out at 94.5%, the inhibition at 10 µM is 98.2% and the inhibition at 30 µM amounted to 104%.
For `O=C1OC2(CCN(C(=O)OCC3c4ccccc4-c4ccccc43)CC2)C(O)=C1C(c1ccccc1)C1CC1` (centres unmarked) [IX-58, 3-(Cyclopropyl-phenyl-methyl)-4-hydroxy-2-oxo-1-oxa-8-aza-spiro[4.5]dec-3-ene-8-carboxylic acid 9H-fluoren-9-ylmethyl ester] the same measures were 79.8%, 86.8% and 87.4%.
For the molecule `CCCC1(CCC)OC(=O)C(C(CC(C)C)c2cccc(NS(=O)(=O)c3ccc(C#N)cc3)c2)=C1O` (centres unmarked) [IX-21, Benzenesulfonamide, 4-Cyano-N-(3-(1-(4-hydroxy-2-oxo-5,5-dipropyl-2,5-dihydro-furan-3-yl)-3-methyl-butyl)-phenyl)-], at HIV-1 protease, the inhibition at 3.3 µM stood at 95.7%, the inhibition at 10 µM was determined as 101% and the inhibition at 30 µM was 96.1%.
On to `CCCC1(CCC)OC(=O)C(C(c2cccc([N+](=O)[O-])c2)C2CC2)=C1O` (centres unmarked) [IX-1, 2(5H)-Furanone, 3-(cyclopropyl(3-nitrophenyl)methyl)-4-hydroxy-5,5-dipropyl-], for which, at HIV-1 protease, the inhibition at 3.3 µM came to 108%, the inhibition at 10 µM was determined as 121% and the inhibition at 30 µM was determined as 122%.
